Laboratory results reported in patent US8633312B2, “Dibenzocycloheptatone derivatives and pharmaceutical agents containing said compounds” (c-a-i-r biosciences GmbH, priority 2008, dated 2014).

Assays:
p38 MAP kinase = p38 MAP kinase (Homo sapiens, UniProt Q16539); assay: Inhibition of p38 MAP kinase, IC50 relative to SB-203580; assay type: biochemical; conditions: relative activity = ratio IC50 (SB-203580)/IC50 (test compound); the higher the value, the more active
TNF-α = assay: Inhibition of TNF-α release, IC50 relative to SB-203580; assay type: cell-based; conditions: relative activity = ratio IC50 (SB-203580)/IC50 (test compound); the higher the value, the more active
Description: The action spectrum of the compounds as inhibitors of the release of TNF-α and IL-1β was investigated with the aid of the test systems as described by Donat C. and Laufer S. in Arch. Pharm. Pharm. Med. Chem. 333, Suppl. 1, 1-40, 2000. The IC50 values obtained were set in relation to the values for the compound SB-203580 of the formula
The numerical values given in the following table are therefore the relative activity, calculated from the ratio of IC50 (SB-203580)/IC50 (test compound). […] The compounds in which R1 represents H represent the prior art according to WO2006/120010.

Chain of p38 MAP kinase (Q16539 whole entry): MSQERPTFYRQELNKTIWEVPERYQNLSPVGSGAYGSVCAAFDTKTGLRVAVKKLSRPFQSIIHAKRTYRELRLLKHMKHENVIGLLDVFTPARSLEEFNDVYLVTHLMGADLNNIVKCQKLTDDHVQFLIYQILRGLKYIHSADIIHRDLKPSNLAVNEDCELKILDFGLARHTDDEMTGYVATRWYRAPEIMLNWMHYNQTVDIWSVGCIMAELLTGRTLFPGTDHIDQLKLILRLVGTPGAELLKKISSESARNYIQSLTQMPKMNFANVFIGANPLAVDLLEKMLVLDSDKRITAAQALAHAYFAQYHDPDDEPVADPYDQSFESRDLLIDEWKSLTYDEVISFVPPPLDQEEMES

Row | SMILES | p38 MAP kinase (p38 MAP kinase) | Inhibition of TNF-α (TNF-α) | melting point [°C]
1 | O=C1c2ccc(Nc3ccc(F)cc3F)cc2CCc2c(O)cccc21 [8-(2,4-Difluorophenylamino)-1-hydroxy-10,11-dihydrodibenzo[a,d]cyclohepten-5-one] | 2.26 | 0.06 | –
2 | O=C1c2ccc(Nc3ccc(F)cc3F)cc2CCc2ccc(OCCCO)cc21 [2-(2,4-Difluoroanilino)-7-(3-hydroxy-propoxy)-10,11-dihydrodibenzo[a,d]-cyclohepten-5-one] | 4.85 | >5 | –
3 | O=C1c2ccc(Nc3ccc(F)cc3F)cc2CCc2ccc(OC3CCOCC3)cc21 [2-(2,4-Difluoroanilino)-7-(2-tetrahydropyran-4-yl-oxy)-10,11-dihydrodibenzo[a,d]-cyclohepten-5-one] | 0.74 | 1.98 | –
4 | O=C1c2ccc(Nc3ccc(F)cc3F)cc2CCc2ccc(O)cc21 [2-(2,4-Difluoroanilino)-7-hydroxy-10,11-dihydrodibenzo[a,d]-cyclohepten-5-one] | 2.03 | 1.80 | –
5 | O=C1c2ccc(Nc3ccc(F)cc3F)cc2CCc2cc(OCCO)ccc21 [2-(2,4-Difluorophenylamino)-8-(2-hydroxyethoxy)-10,11-dihydrodibenzo[a,d]-cyclohepten-5-one] | 2.60 | – | –
6 | COc1ccccc1Nc1ccc2c(c1)OCc1cc(N)ccc1C2=O [8-Amino-3-(2-methoxyphenylamino)-6H-dibenzo[b,e]oxepin-11-one] | 0.14 | 0.04 | 68.4
7 | Nc1ccc2c(c1)COc1cc(Nc3ccc(F)cc3N)ccc1C2=O [3-(2-Amino-4-fluorophenylamino)-8-amino-6H-dibenzo[b,e]oxepin-11-one] | 1.15 | 0.24 | 194.5
8 | Nc1ccc2c(c1)COc1cc(Nc3ccc(F)cc3F)ccc1C2=O [Example 82, 3-(2,4-Difluorophenylamino)-8-amino-6H-dibenzo[b,e]oxepin-11-one] | – | – | 184 to 193
9 | Nc1ccc2c(c1)COc1cc(Nc3ccccc3N)ccc1C2=O [3-(2-Aminophenylamino)-8-amino-6H-dibenzo[b,e]oxepin-11-one] | 0.93 | – | 203.9
10 | O=C1c2ccc(Nc3ccc(F)cc3F)cc2CCc2c(OCCN3CCOCC3)cccc21 [8-(2,4-Difluorophenylamino)-1-(2-morpholin-4-yl-ethoxy)-10,11-dihydrodibenzo[a,d]cyclo-hepten-5-one] | 1.26 | – | –
11 | O=C1c2ccc(Nc3ccc(F)cc3F)cc2CCc2c(OC[C@H](O)CO)cccc21 [(R)-8-(2,4-Difluorophenylamino)-1-(2,3-dihydroxypropoxy)-10,11-dihydrodibenzo-[a,d]cyclohepten-5-one] | 1.76 | – | –
12 | O=C1c2ccc(Nc3ccc(F)cc3F)cc2CCc2cc(OCCN3CCOCC3)ccc21 [2-(2,4-Difluorophenylamino)-8-(2-morpholin-4-yl-ethoxy)-10,11-dihydrodibenzo[a,d]cyclohepten-5-one] | 2.53 | – | –
13 | Nc1ccc2c(c1)COc1cc(Nc3ccc(C(F)(F)F)cc3N)ccc1C2=O [Example 92, 8-Amino-3-(2-amino-4-trifluoromethylphenylamino)-6H-dibenzo[b,e]oxepin-11-one] | – | – | 93.9
14 | O=C1c2ccc(NC(=O)N3CCOCC3)cc2COc2cc(Nc3ccc(F)cc3F)ccc21 [Morpholine-4-carboxylic acid [3-(2,4-difluorophenylamino)-1-oxo-6,11-dihydrodibenzo[b,e]oxepin-8-yl]amide] | 0.51 | – | 244.3
15 | O=C1c2ccc(-n3cnnn3)cc2COc2cc(Nc3ccc(F)cc3F)ccc21 [Example 95, 3-(2,4-Difluorophenylamino)-8-tetrazol-1-yl-6H-dibenzo[b,e]oxepin-11-one] | – | – | 59
16 | Nc1ccccc1Nc1ccc2c(c1)CCc1ccc(OC[C@@H](O)CO)cc1C2=O [2-(2-Aminoanilino)-7-[2S-,3-dihydroxypropoxy]-10,11-dihydrodibenzo[a,d]-cyclohepten-5-one] | 1.54 | >5 | –
17 | COc1ccc2c(c1)C(=O)c1ccc(Nc3ccc(F)cc3F)cc1CC2 [2-(2,4-Difluoroanilino)-7-methoxydibenzosuberone] | 1.59 | 0.70 | –
18 | COc1ccc2c(c1)C(=O)c1ccc(Nc3ccc(F)cc3N)cc1CC2 [2-(2-Amino-4-fluoroanilino)-7-methoxydibenzosuberone] | 0.92 | 0.73 | –
19 | CC1(C)OC[C@H](COc2ccc3c(c2)C(=O)c2ccc(Nc4ccccc4N)cc2CC3)O1 [2-(Aminoanilino)-7-(S-1,2-isopropylideneglycer-3-yl)-10,11-dihydrodibenzo[a,d]-cyclohepten-5-one] | 1.31 | >5 | –
20 | COc1ccc2c(c1)C(=O)c1ccc(Nc3ccccc3OC)cc1CC2 [2-(2-Methoxyanilino)-7-methoxydibenzosuberone] | 0.11 | 0.18 | –
21 | COc1ccc2c(c1)C(=O)c1ccc(Nc3ccccc3N)cc1CC2 [2-(2-Aminoanilino)-7-methoxydibenzosuberone] | 1.00 | 0.91 | –
22 | COc1ccc2c(c1)CCc1cc(Nc3ccc(F)cc3F)ccc1C2=O [2-(2,4-Difluorophenylamino)-8-methoxy-10,11-dihydrodibenzo[a,d]cyclo-hepten-5-one] | 2.60 | – | –
